Test results: US20240294572A1, “Antimicrobial Peptides” (priority 2021, published 2024)
Non-standard residues stand in square brackets, D forms with d. Residues, ends and D or L forms follow the SMILES beside them. *: point of attachment. Decanoyl = CCCCCCCCCC(=O)*

How the values were obtained:
[1] = biological target: T1, Apolipoprotein A-I (Q00623) (Mus musculus, UniProt Q00623); test: Mass spectrometry of mouse plasma proteins bound to bead-immobilized peptide; type: binding; settings: intensity bound to L-form / D-form of C10-KR8
T1 construct: incubated with 5% mouse plasma; from tissue; host or cells: mouse plasma (5%)
T1 sequence (Q00623 19-264): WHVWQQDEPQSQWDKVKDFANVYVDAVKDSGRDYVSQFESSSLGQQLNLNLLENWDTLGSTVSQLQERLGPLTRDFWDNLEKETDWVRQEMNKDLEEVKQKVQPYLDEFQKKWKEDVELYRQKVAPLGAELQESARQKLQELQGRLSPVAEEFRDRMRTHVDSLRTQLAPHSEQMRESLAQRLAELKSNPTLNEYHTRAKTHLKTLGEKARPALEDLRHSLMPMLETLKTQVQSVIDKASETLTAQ
Procedure: (§1) Dynabeads M-370 amine (2×10^9 beads/mL, 50 μL; Thermo Fisher Scientific) were washed 3 times in sterile PBS (1 mL; GIBCO) and reacted with a bifunctional SM(PEG)4 cross-linker (5 mg/mL in DMSO) containing N-hydroxysuccinimide (NHS) ester and maleimide functional groups. A stable covalent bond between the amino group of beads and the NHS ester of the cross-linker was formed in PBS at pH 7.2 at room temperature for 24 hours with shaking at 80 rpm. The beads were then washed six times with PBS to remove nonreacted cross-linker. Next, peptide C10-KR8 (with a cysteine at the N-terminus) at 5 mg/mL was reacted with the free maleimide group in PBS for 24 hours at room temperature with shaking at 80 rpm. Another round of washing was conducted to remove the nonreacted peptides. Both the L-and D-forms of the peptide were coupled in the same manner. A portion of the beads without peptide coupling was saved as a control.
(§2) For serum binding experiments, the beads were resuspended in 500 μL of PBS; 200-μL aliquots of the coated and control dynabead were incubated with 5% mouse plasma for 18 hours at 37° C. After binding, the beads were washed six times with PBS to remove unbound proteins. Finally, the beads were suspended in 50 μL of PBS for mass spectrophotometric analysis to identify peptide-binding partners.
(§3) The samples were reduced by 10 mM dithiothreitol (DTT) and incubated for 30 minutes at 56° C. and back to room temperature. A final concentration of 50 mM iodoacetamide was added to alkylate free cysteines followed by further incubation for 20 min in the dark. Bound proteins were enzymatically digested by trypsin (4 μL of 0.5 μg/mL) overnight. A 60 […] portion was transferred to a new Eppendorf® tube and dried for 2 hours. The samples were then dissolved in 20 μL of 2% acetonitrile with 0.1% formic acid before being loaded to Q-tip columns (Pepclean, C18 spin column). Column was activated by pipetting in and out (4× times), 10 μL of 70% acetonitrile with 0.1% formic acid, and equilibrating with the same volume of 2% acetonitrile with 0.1% formic acid. Binding of the samples was done by mixing more than 10 × times, followed by washing in the same buffer (2% acetonitrile with 0.1% formic acid). The bound peptides were then eluted with 20 μL of 70% acetonitrile with 0.1% formic acid. Samples were subjected to LC-MS analysis after being suspended in the desired buffer.
(§4) Extracted peptides were resuspended in 2% acetonitrile (ACN) and 0.1% formic acid (FA) and loaded onto trap column Acclaim™ PepMap™ 100 75 μm×2 cm C18 LC Columns (Thermo Scientific) at a flow rate of 4 μL/minute. These were then separated with a Thermo RSLC UltiMate™ 3000 on a Thermo Easy-Spray PepMap™ M RSLC C18 75 μm×50 cm C-18 2 μm column (Thermo Scientific) with a step gradient of 4-25% solvent B (0.1% FA in 80% ACN) from 10 to 37 minutes and 25-45% solvent B for 37-46 minutes at 300 nL/min and 50° C. with a 70 minute total run time. Eluted peptides were analyzed by a Thermo Orbitrap Fusion™ Lumos™ Tribrid™ (Thermo Scientific) mass spectrometer in a data dependent acquisition mode. A survey full scan MS (from m/z 350-1800) was acquired in the orbitrap with a resolution of 120000. The AGC target for MS1 was set as 4×10^5 and the ion filling time set as 100 ms. The most intense ions with charge state 2-6 were isolated in 3 second cycle and fragmented using HCD fragmentation with 40% normalized collision energy and detected at a mass resolution of 30000 at 200 m/z. The AGC target for MS/MS was set as 5×10^4 and ion filling time set 60 ms dynamic exclusion was set for 30 seconds with a 10 ppm mass window. Protein identification was performed by searching MS/MS data against the Swiss-Prot mouse protein database. The search was set up for full tryptic peptides with a maximum of two missed cleavage sites. Acetylation of protein N-terminus and oxidized methionine were included as variable modifications, and carbamidomethylation of cysteine was set as fixed modification. […]

[2] = biological target: T2, Apolipoprotein A-II (P09813) (Mus musculus, UniProt P09813); test: as above; type: binding; settings: intensity bound to L-form / D-form of C10-KR8
T2 construct: incubated with 5% mouse plasma; from tissue; host or cells: mouse plasma (5%)
T2 sequence (P09813 19-102): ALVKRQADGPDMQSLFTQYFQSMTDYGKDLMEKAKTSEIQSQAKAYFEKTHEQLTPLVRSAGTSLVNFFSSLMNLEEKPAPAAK
Procedure: as §1, §2, §3, §4

[3] = biological target: T3, Apolipoprotein C-I (P34928) (Mus musculus, UniProt P34928); test: as above; type: binding; settings: intensity bound to L-form / D-form of C10-KR8
T3 construct: incubated with 5% mouse plasma; from tissue; host or cells: mouse plasma (5%)
T3 sequence (P34928 27-88): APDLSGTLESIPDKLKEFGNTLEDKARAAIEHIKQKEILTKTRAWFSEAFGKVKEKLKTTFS
Procedure: as §1, §2, §3, §4

[4] = biological target: T4, Apolipoprotein E (P08226) (Mus musculus, UniProt P08226); test: as above; type: binding; settings: intensity bound to L-form / D-form of C10-KR8
T4 construct: incubated with 5% mouse plasma; from tissue; host or cells: mouse plasma (5%)
T4 sequence (P08226 19-311): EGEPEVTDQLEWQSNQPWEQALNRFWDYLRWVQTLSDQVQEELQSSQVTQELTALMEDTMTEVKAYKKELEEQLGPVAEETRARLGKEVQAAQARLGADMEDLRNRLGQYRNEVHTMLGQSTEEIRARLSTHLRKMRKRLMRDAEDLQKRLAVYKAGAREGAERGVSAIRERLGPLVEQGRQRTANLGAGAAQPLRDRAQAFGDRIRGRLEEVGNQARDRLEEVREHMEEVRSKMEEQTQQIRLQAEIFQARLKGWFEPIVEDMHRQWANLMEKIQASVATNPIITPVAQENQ
Procedure: as §1, §2, §3, §4

[5] = biological target: T5, Serum albumin (P07724) (Mus musculus, UniProt P07724); test: as above; type: binding; settings: intensity bound to L-form / D-form of C10-KR8
T5 construct: incubated with 5% mouse plasma; from tissue; host or cells: mouse plasma (5%)
T5 sequence (P07724 25-608): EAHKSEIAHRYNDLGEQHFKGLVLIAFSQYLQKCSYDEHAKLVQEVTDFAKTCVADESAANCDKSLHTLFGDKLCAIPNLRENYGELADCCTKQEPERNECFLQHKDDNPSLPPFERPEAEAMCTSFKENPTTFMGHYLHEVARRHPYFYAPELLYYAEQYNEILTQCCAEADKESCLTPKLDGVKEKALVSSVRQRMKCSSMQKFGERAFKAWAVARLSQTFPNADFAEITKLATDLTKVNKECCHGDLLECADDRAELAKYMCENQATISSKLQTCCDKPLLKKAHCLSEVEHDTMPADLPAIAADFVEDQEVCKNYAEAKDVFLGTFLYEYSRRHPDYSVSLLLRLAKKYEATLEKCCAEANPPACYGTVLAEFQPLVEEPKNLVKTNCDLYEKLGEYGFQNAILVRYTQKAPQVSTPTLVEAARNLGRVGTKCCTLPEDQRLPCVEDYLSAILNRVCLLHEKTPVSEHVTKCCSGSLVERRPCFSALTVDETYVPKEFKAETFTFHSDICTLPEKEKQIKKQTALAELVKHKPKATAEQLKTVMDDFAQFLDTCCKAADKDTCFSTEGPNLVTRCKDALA
Procedure: as §1, §2, §3, §4

[6] = tested on: MCP-1, IL-17A, IL-10, TNF-α; test: Cytokine quantification in tissues surrounding catheters; type: in vivo, mice; settings: day 3 after peptide treatment
Procedure: The catheter-associated tissue homogenates/plasma samples stored at −80° C. were thawed to room temperature for the cytokines quantification using the BioLegend® individual mouse cytokine kit. The protocol for sample preparation and analysis was per the manufacturer manual. The samples were in duplicates with appropriate standards. The data are represented as mean±SD. Plots were generated using GraphPad prism 7, where * indicates p<0.05, **p<0.01, ***p<0.001, and NS means no significance (nonparametric, unpaired, Mann-Whitney test).

Structure (SMILES)	L/D Ratio, Apolipoprotein A-I [1]	L/D Ratio, Apolipoprotein A-II [2]	L/D Ratio, Apolipoprotein C-I [3]	L/D Ratio, Apolipoprotein E [4]	L/D Ratio, Serum albumin [5]	level of IL-10 in surrounding tissues of catheters [6]	level of IL-17A in surrounding tissues of catheters [6]	level of MCP-1/CCL2 in surrounding tissues of catheters [6]	level of TNFα in surrounding tissues of catheters [6]
CCCCCCCCCC(=O)N[C@@H](CCCCN)C(=O)N[C@@H](CCCNC(=N)N)C(=O)N[C@H](C(=O)N[C@@H](Cc1c[nH]c2ccccc12)C(=O)N[C@@H](CCC(N)=O)C(=O)N[C@@H](CCCNC(=N)N)C(=O)N[C@H](C(=O)N[C@@H](CCCCN)C(N)=O)[C@@H](C)CC)[C@@H](C)CC [Peptide C10-KR8] (Decanoyl-KRIWQRIK-NH2)	3.54	0.00147	2.08	0.811	2.28	–	–	–	–
CCCCCCCCCC(=O)N[C@H](CCCCN)C(=O)N[C@H](CCCNC(=N)N)C(=O)N[C@@H](C(=O)N[C@H](Cc1c[nH]c2ccccc12)C(=O)N[C@H](CCC(N)=O)C(=O)N[C@H](CCCNC(=N)N)C(=O)N[C@@H](C(=O)N[C@H](CCCCN)C(N)=O)[C@H](C)CC)[C@H](C)CC [Peptide C10-KR8d] (Decanoyl-[dK][dR][dI][dW][dQ][dR][dI][dK]-NH2)	–	–	–	–	–	decrease	up-regulation	up-regulation	decrease
